Source: patent US12458688B2, “Epitopes” (Scancell Limited, priority 2018, dated 2025)
Read-outs that look alike come from different tables or passages of the source. Where no end group is shown, it is not given here. [ ]: non-standard residue; d: D form. hCit = NC(=O)NCCCC[C@H](N)C(=O)O

T1: HLA-DP4 (Homo sapiens, UniProt P04440+P20036)
T1 sequence (P20036 29-260): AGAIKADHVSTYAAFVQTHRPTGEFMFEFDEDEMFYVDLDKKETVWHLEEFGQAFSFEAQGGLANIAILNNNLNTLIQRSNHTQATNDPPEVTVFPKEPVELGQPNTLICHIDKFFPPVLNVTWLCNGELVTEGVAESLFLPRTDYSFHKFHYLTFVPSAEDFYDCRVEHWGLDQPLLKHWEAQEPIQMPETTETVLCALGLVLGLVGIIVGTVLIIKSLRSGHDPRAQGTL
T1 sequence (P04440 30-258): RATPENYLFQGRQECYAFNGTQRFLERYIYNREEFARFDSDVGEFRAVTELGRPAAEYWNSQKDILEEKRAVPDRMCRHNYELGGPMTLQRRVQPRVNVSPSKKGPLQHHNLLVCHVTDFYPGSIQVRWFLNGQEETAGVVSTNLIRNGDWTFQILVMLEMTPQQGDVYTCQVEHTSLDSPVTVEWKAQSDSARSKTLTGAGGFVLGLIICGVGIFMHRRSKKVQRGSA


Key:
[1] = target: HLA-DP4 (human); experiment: DP4 competition ELISA; competitor biotinylated Hep B peptide; 5 fold excess of unlabelled peptide
[2] = test system: HLA-HHDII/DP4 mice; experiment: Ex vivo IFNγ ELISpot after peptide immunisation, HHDII/DP4 mice; assay type: in vivo, mouse; details: for IFNγ ELISpot response: 3 immunisations with CpG/MPLA, day 21
Protocol: (§1) C57BL/6 mice (Charles River, UK), HLA-DR4 mice (Model #4149, Taconic, USA), HLA-A2/DR1 (HHDII/DR1, Pasteur Institute), HLA-A2.1+/+HLA-DP4+/+hCD4+/+ (HLA-HHDII/DP4) transgenic mice (EM: 02221, European Mouse Mutant Archive) described in patent WO2013/017545 A1 (EMMA repository, France) were used, aged between 8 and 12 weeks. Peptides were dissolved in PBS to 1 mg/ml and then emulsified (a series of dilutions) with CpG ODN 1826 and MPLA 6 μg/mouse of each (Invivogen, UK). Peptides (25 μg/mouse) were injected subcutaneously at the base of the tail. Mice were immunised at days 1, 7 and 14 for peptide immunisation. Spleens were removed for analysis at day 21 unless stated otherwise.
(§2) ELISpot assays were performed using murine IFNγ, IL-17 and IL-10 capture and detection reagents according to the manufacturer's instructions (Mabtech, Sweden). In brief, anti-IFNγ, IL-17 and IL-10 specific antibodies were coated onto wells of 96-well Immobilin-P plate. Synthetic peptides (at various concentrations) and 5×10^5 per well splenocytes were added to wells of the plate in quadruplicate Tumour target cells were added where relevant at 5×10^4/well in triplicate and plates incubated for 40 hrs at 37° C. After incubation, captured IFNγ, IL-10 and IL-17 were detected by biotinylated anti-IFNγ, IL-10 and IL-17 antibodies and developed with a streptavidin alkaline phosphatase and chromogenic substrate. Lipopolysaccharide (LPS; 5 μg/ml) was used as a positive control. For MHC blocking studies, anti-CD4 blocking antibody (GK1.5) or anti-CD4 blocking antibody (RPA-T4) for HHDII/DP4 mice which express human CD4 and anti-CD8 blocking antibody (2.43) from Bioxcell were used at 20 μg/ml. Spots were analysed and counted using an automated plate reader (Cellular Technologies Ltd).
Screening was performed to identify potential homocitrullinated ALDOA epitopes in transgenic HHDII/DP4 and HHDII/DR1 mice. Mice were immunised with pools of human homocitrullinated peptides. […] Each pool was administered as three immunisations containing 20 μg of each peptide and CpG/MPLA as an adjuvant. After 21 days the mice were culled and the immune responses to each peptide within the immunising pool were assessed by ex vivo ELISpot in HHDII/DP4 (FIG. 4b) and HHDII/DR1 mice (FIG. 4d). […] Our predictions therefore identified 3/5 peptides which could induce a T cell response. […] Of the responding peptides ALDOA 74-93 Hcit and 140-157 Hcit peptides are homologous in human and mice therefore these two peptides were selected for further investigation. Minimal IL-10 (FIG. 6b) or IL-17 (FIG. 6c) responses were seen to Aldolase peptides in HHDII/DP4 mice.
Using this combination of predictions, 5 CyK8 peptides containing homocitrulline were synthesised (Table 4). Screening was performed to identify potential homocitrullinated Cyk8 epitopes in transgenic HHDII/DP4. Mice were immunised with pools of human homocitrullinated peptides. […] Each pool was administered as three immunisations containing 20 μg of each peptide and CpG/MPLA as an adjuvant. After 21 days the mice were culled and the immune responses to each peptide within the immunising pool were assessed by ex vivo ELISpot in HHDII/DP4 (FIG. 10a). […] The responses to CyK8 101-120 Hcit, 112-131 Hcit, 182-201 Hcit, 371-388 Hcit and 381-399 Hcit immunisation were characterised for cross reactivity to the wt peptide sequence. […] Thus a key characteristic of immunogenic peptides is they express homocitrulline. All of these peptides (100%) were immunogenic. Thus a high predicted HLA-DP4 binding affinity (<30), the presence of homocitrulline residues in the core region, the peptide being amphipathic in nature with a predominantely spiral conformational structure upon 3D modelling, and the existence of homology between the mouse and human sequences defines immunogenicity. When this model was applied retrospectively to include the vimentin and ALDOA peptides 8/9 (88%) were correctly predicted. […]

[3] = target: T1, HLA-DP4; experiment: DP4 competition assay with biotinylated Hep B peptide; details: inhibition of biotinylated Hep B binding to HLA-DP4; 5 fold excess test peptide, equal amount for unlabelled Hep B
Protocol: 2×T175 gave 2.5×10^7 B16 HHDII/DP4 (B16F1 β2M H2Ab1 dKO A35 HHDII/DP4 H7/2E9/F9 p14) cells. This was enough for 5 preps using the following protocol with Mem-PER™ Plus Membrane Protein Extraction Kit (thermo-scientific cat #89842).
5×10^6 cells were resuspended in the growth media by scraping the cells off the surface of the plate with a cell scraper and then centrifuged at 300 g for 5 mins. The cell pellet was washed with 3 ml of Cell Wash Solution and centrifuged at 300 g for 5 mins. The supernatant was removed and discarded. The cells were resuspended in 1.5 ml of Cell Wash Solution and transfer to a 2 ml centrifuge tube and centrifuged at 300 g for 5 mins. The supernatant was discarded. 0.75 ml of permeabilization buffer was added to the cell pellet and vortexed briefly to obtain a homogeneous cell suspension and incubated for 10 mins at 4° C. with constant mixing. The permeabilized cells were centrifuge for 15 mins at 16,000g before carefully removing the supernatant containing cytosolic proteins and transfering to a new tube. 0.5 ml of solubilization buffer was added to the pellet and resuspend prior to incubating at 4° C. for 30 minutes with constant mixing prior to centrifugation at 16,000g for 15 mins at 4° C. The supernatant containing solubilized membrane and membrane-associated proteins was transfered to a new tube. Aliquots were frozen at −80° C. for future use. 12.5 μl Halt™ Protease and Phosphatase Inhibitor Cocktail, EDTA-free (100X) thermo-scientific (Catalog number 78445) was added prior to freezing.
High binding plates were coated with streptavidin (Sigma S4762 at 1 mg/ml) 1/500 in PBS and incubated overnight at 4° C. The plates were blocked with 1% BSA in PBS for 4 hrs at room temp and washed 3×PBS/0.5% Tweenx. 450 μl of cell prep lysate (B16F1 B16 HHDII/DP4 H7/2E9/F9) was mixed with 50 μg test peptide (see below) or 10 μg of unlabelled Hep B peptide for 30 mins. 10 μg biotinylated Hep B peptide was added & incubated for 4 hrs at 37° C.:
Lysate/peptide mix was added to the plates at 100 μl/well and incubated for 4 hrs at room temperature. Plates were washed 3× with PBS/0.5% Tween. 100 μl per well of Leinco anti-Human HLA-DP4 clone B7/21 #H260 1 mg/ml at 1/500 dilution in 1% BSA/PBS was added and incubated for 1 hr at room temperature prior to washing 3× PBS/0.5% Tween. Goat anti-mouse lgG3-HRP at 0.5 mg/ml 1/500 100 μl per well (Invitrogen #M32607) diluted in 1% BSA/PBS) was added for 1 hr at room temperature prior to washing and adding 150 μl of TMB substrate to each well. The reaction was stopped with 50 μl of 2N H2SO4 and plates read plate at 450 nm.
To ensure that the biotinylation of Hep B had not interfered with its binding, HLA-DP4 was incubated with equal amounts of biotinylated and unlabelled Hep B peptide. Unlabelled peptide competed equally reducing binding by 47% (FIG. 53b).
The biotinylated HepB peptide was then incubated with a 5 fold excess of the unlabelled homocitrulline peptides. All peptides inhibited the binding of biotinylated Hep B to HLA-DP4 but to varying levels (FIG. 53c-e).

[4] = test system: HLA-HHDII/DR1 mice; experiment: Ex vivo IFNγ ELISpot after peptide immunisation, HHDII/DR1 mice; assay type: in vivo, mouse; details: for IFNγ ELISpot response: 3 immunisations with CpG/MPLA, day 21
Protocol: as §1, §2
Screening was performed to identify potential homocitrullinated vimentin epitopes in mice. Mice were immunised with pools of homocitrullinated peptides. […] Each pool was administered as three immunisations containing 20 μg of each peptide and CpG/MPLA as an adjuvant on day 1, 8 and 15. On day 21 the mice were culled and the immune responses to each peptide within the immunising pool were assessed by ex vivo ELISpot. Given that different mouse strains have different MHC repertoires a number of strains were used for screening. Peptide responses were assessed in transgenic strains expressing human DR4 or HHDII/DR1 in a C57BL/6 background (see methods). […]
The five selected homocitrullinated Cyk8 peptides were also screened in HHDII/DR1 transgenic mice. […] Response to Cyk8 112Hcit peptide in the HHDII/DR1 mice was lost in the presence of CD8 blocking antibody but less effect of the CD4 blocking antibody was seen (FIG. 12b). […] Responses to homocitrullinated Cyk8 peptides show both CD4 and CD8 mediated responses.

[5] = splenocytes after 7 days culture

Molecule | % inhibition [1] [%] | IFNγ ELISpot response [2] | IFNγ response in presence of CD4 blocking antibody [2, 5] | other results
Aldolase A 74-93 WT (peptide) | 27 | – | – | –
Aldolase A 140-157 WT (peptide) | 29 | – | – | –
Aldolase A 238-256 Hcit (peptide) | 73 | – | – | –
Cytokeratin 8 182-202 Hcit (peptide) | 61 | – | – | –
Cytokeratin 8 371-388 Hcit (peptide) | 72 | – | – | –
DVAASEFFRSG-Hcit-YDLDF-Hcit-SP [Alpha enolase 245-264 Hcit] | – | stimulation of IFNγ responses | lost | –
EDFSETLTRA-Hcit-FEELNMDLFR [BiP 316-336 Hcit] | – | stimulation of IFNγ responses | loss of response | –
EELNMDLFRSTM-Hcit-PVQ-Hcit-VL [BiP 328-346 Hcit] | – | stimulation of IFNγ responses | loss of response | cross reactivity of Hcit response to wt peptide [2]: significantly higher
GFFLLTRILTIPQ [HepB, reference compound] | – | – | – | % inhibition [3]: 47%
GGSLP-Hcit-VEA-Hcit-FINYV-Hcit-NCFR [NPM 258-277 Hcit] | – | stimulation of IFNγ responses | blocking of the response | cross reactivity of Hcit response to wt peptide [2]: significantly higher; IFNγ response in presence of CD8 blocking antibody [2, 5]: not with the CD8 blocking antibody
Hcit-MALDIEIATYR-Hcit-LLEGEE [Vimentin 390-408 Hcit] | – | stimulation of IFNγ responses | loss of response | –
Hcit-MLET-Hcit-WSL [Cyk8 117-125Hcit] | – | generation of responses | – | IFNγ response in presence of CD8 blocking antibody [4]: lost; IFNγ ELISpot response [4]: generation of responses; IFNγ response in presence of CD4 blocking antibody [2]: not in the presence of CD4 blocking antibody; IFNγ response in presence of CD8 blocking antibody [2]: blocked
IGGVILFHETLYQKADDGRP [Aldolase A 74-93 WT, reference compound] | – | – | – | % inhibition [3]: 27%
KDGADFAKWRCVLKIGEH [Aldolase A 140-157 WT, reference compound] | – | – | – | % inhibition [3]: 29%
LEQQNKMLETKWSLLQQQKT [Cyk8 112 wt, reference compound] | – | – | – | IFNγ ELISpot response [4]: no specific response
PLRPQNYLFGCEL-Hcit-AD-Hcit- [NPM 11-27 Hcit] | – | stimulation of IFNγ responses | blocking of the response | IFNγ response in presence of CD8 blocking antibody [2, 5]: not with the CD8 blocking antibody
RSERLA-Hcit-YNQLLRIEEELGS [Alpha enolase 400-419 Hcit] | – | stimulation of IFNγ responses | lost | –
VLAAVY-Hcit-AL [Aldolase 209-217] | – | stimulation of IFNγ responses | – | cross reactivity of Hcit response to wt peptide [4]: lower reactivity; IFNγ ELISpot response [4]: strong responses; IFNγ response in presence of CD8 blocking antibody [2, 5]: lost
Vimentin 116-135 WT (peptide) | 48 | – | – | –
YVTE-Hcit-VLAAVY-Hcit-ALSD [Aldolase 204-219 Hcit] | – | stimulation of IFNγ responses | partial loss of response | cross reactivity of Hcit response to wt peptide [4]: lower reactivity; IFNγ ELISpot response [4]: strong responses; cross reactivity of Hcit response to wt peptide [2]: significantly higher; IFNγ response in presence of CD8 blocking antibody [2, 5]: partial loss of response
[hCit]CPLL[hCit]PWALTFSYGRALQ [Aldolase A 289-307 Hcit] | 45 | – | – | –
